# From ChEMBL document CHEMBL5034035, “Discovery of an Oxycyclohexyl Acid Lysophosphatidic Acid Receptor 1 (LPA1) Antagonist BMS-986278 for the Treatment of Pulmonary Fibrotic Diseases” (J Med Chem, 2021)
# How the values were obtained:
# [1] = Protein binding in human plasma assessed as free fraction at 3 mg/kg, po or 1 mg/kg, iv measured up to 24 hrs by LC-MS/MS analysis; assay type: ADME, organism-based
# [2] = Protein binding in Sprague-Dawley rat plasma assessed as free fraction at 3 mg/kg, po or 1 mg/kg, iv measured up to 24 hrs by LC-MS/MS analysis; assay type: ADME, organism-based
# [3] = Protein binding in CD-1 mouse plasma assessed as free fraction at 3 mg/kg, po or 1 mg/kg, iv measured up to 24 hrs by LC-MS/MS analysis; assay type: ADME, organism-based
# [4] = target: T1, Cytochrome P450 2B6 (Homo sapiens, UniProt P20813); assay: Inhibition of CYP2B6 (unknown origin); assay type: ADME
# T1 sequence (P20813 whole entry): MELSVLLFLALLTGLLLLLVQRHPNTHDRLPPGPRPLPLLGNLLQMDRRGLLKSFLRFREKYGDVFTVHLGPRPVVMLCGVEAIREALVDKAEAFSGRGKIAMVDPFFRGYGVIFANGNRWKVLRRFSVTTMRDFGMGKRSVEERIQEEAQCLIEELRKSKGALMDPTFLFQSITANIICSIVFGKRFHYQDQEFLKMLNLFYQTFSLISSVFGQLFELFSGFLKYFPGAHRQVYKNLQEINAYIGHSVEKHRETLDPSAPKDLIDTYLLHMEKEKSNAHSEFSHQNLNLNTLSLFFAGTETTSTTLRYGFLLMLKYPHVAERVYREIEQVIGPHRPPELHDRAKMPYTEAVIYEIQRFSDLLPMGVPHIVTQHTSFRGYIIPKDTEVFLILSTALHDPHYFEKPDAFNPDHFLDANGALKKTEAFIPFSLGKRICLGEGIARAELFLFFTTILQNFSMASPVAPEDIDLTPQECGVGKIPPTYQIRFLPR
# [5] = target: Bile salt export pump (Homo sapiens, UniProt O95342); assay: Inhibition of BSEP (unknown origin); assay type: ADME
# Bile salt export pump, sequence (O95342 whole entry): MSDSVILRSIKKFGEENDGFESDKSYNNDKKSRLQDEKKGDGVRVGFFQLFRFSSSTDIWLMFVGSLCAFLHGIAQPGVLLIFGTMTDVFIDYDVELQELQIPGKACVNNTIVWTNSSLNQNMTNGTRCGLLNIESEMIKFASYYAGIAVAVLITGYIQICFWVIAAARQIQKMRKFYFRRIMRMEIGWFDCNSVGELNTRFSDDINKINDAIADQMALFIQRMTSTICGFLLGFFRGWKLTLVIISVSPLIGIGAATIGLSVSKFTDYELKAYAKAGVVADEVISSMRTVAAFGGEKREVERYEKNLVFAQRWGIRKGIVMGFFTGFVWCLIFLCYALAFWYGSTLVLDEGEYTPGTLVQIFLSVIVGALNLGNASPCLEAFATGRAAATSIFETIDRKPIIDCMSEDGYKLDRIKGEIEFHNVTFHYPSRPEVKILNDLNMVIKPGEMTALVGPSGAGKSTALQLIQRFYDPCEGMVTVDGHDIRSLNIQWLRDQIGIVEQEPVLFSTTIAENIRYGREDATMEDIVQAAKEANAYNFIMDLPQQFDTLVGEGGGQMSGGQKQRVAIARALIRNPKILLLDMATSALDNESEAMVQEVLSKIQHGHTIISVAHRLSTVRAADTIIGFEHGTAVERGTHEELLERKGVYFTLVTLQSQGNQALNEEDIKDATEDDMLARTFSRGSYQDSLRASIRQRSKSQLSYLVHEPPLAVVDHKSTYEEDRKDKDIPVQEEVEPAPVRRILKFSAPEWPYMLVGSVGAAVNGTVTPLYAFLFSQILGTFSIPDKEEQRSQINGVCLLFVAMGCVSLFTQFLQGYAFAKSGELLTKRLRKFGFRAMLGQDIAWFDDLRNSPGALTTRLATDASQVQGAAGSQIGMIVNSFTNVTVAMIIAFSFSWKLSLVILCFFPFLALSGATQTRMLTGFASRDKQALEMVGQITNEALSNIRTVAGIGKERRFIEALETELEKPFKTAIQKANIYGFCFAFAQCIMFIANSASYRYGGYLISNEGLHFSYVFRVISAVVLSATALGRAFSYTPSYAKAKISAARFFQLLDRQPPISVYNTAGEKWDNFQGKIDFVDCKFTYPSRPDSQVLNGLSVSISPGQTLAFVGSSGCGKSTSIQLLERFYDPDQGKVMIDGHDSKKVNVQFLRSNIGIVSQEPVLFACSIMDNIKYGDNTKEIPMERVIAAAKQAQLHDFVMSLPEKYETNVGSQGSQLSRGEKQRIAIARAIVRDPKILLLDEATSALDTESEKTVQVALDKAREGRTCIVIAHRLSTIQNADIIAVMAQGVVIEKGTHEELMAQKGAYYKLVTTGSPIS
# [6] = target: T2, Cytochrome P450 1A2 (Homo sapiens, UniProt P05177); assay: Inhibition of CYP1A2 (unknown origin); assay type: ADME
# T2 sequence (P05177 whole entry): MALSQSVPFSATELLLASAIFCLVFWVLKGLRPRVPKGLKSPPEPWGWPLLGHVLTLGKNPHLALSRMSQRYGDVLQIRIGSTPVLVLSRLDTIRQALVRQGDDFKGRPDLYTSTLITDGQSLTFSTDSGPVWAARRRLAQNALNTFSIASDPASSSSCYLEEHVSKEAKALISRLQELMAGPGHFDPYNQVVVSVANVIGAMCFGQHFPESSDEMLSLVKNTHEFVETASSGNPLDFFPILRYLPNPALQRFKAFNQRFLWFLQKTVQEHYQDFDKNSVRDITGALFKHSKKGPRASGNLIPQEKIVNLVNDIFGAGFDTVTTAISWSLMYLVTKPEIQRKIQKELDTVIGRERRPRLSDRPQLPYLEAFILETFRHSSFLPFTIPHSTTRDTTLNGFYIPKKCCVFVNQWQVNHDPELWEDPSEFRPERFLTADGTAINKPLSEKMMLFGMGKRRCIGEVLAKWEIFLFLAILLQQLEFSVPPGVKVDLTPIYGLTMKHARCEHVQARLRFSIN
# [7] = target: Cytochrome P450 2C9 (Homo sapiens, UniProt P11712); assay: Inhibition of CYP2C9 (unknown origin); assay type: ADME
# Cytochrome P450 2C9, sequence (P11712 whole entry): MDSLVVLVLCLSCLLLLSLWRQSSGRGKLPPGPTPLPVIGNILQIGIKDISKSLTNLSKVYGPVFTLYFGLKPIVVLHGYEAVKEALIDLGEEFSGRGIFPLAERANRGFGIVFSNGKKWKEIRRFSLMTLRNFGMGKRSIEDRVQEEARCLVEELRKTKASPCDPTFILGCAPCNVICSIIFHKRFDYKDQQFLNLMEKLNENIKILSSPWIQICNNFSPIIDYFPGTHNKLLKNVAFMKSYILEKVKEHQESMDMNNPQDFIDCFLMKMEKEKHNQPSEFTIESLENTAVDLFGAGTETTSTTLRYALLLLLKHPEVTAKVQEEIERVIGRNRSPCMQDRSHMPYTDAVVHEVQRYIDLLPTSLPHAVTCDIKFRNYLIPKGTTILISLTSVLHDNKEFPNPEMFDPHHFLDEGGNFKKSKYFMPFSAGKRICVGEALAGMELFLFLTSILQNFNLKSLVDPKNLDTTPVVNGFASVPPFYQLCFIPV
# [8] = target: T3, Solute carrier organic anion transporter family member 1B3 (Homo sapiens, UniProt Q9NPD5); assay: Inhibition of OATP1B3 (unknown origin); assay type: ADME
# T3 sequence (Q9NPD5 whole entry): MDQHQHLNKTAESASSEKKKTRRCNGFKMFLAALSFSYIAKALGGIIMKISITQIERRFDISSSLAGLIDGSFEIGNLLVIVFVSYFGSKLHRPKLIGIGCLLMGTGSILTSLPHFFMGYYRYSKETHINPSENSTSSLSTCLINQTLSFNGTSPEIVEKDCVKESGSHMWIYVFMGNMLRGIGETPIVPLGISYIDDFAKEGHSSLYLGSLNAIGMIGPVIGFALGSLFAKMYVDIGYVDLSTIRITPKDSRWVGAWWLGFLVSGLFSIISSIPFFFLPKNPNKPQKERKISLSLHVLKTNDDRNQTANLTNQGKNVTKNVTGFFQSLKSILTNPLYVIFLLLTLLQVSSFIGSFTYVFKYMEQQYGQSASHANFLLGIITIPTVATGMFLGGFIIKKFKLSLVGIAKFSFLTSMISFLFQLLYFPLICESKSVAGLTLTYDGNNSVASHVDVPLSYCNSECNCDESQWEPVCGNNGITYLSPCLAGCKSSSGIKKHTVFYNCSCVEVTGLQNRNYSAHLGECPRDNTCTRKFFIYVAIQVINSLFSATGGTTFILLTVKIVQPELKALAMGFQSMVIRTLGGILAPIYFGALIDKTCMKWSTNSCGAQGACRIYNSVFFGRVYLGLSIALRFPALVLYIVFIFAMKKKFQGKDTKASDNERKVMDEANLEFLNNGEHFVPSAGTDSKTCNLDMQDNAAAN
# [9] = target: T4, Cytochrome P450 2C8 (Homo sapiens, UniProt P10632); assay: Inhibition of CYP2C8 (unknown origin); assay type: ADME
# T4 sequence (P10632 whole entry): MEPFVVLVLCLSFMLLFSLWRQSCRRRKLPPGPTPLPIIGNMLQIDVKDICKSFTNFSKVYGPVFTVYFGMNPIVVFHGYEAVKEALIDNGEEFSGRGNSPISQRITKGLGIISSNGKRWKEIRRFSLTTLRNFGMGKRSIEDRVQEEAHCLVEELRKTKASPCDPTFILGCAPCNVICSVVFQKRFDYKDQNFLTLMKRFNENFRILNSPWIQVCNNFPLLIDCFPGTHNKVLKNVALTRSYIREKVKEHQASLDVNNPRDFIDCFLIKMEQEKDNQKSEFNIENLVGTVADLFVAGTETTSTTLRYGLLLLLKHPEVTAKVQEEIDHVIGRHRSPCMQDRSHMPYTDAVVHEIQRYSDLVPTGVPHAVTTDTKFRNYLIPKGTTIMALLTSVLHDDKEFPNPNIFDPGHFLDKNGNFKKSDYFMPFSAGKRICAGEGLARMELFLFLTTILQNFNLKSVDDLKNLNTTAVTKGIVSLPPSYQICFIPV
# [10] = target: Cytochrome P450 2C19 (Homo sapiens, UniProt P33261); assay: Inhibition of CYP2C19 (unknown origin); assay type: ADME
# Cytochrome P450 2C19, sequence (P33261 whole entry): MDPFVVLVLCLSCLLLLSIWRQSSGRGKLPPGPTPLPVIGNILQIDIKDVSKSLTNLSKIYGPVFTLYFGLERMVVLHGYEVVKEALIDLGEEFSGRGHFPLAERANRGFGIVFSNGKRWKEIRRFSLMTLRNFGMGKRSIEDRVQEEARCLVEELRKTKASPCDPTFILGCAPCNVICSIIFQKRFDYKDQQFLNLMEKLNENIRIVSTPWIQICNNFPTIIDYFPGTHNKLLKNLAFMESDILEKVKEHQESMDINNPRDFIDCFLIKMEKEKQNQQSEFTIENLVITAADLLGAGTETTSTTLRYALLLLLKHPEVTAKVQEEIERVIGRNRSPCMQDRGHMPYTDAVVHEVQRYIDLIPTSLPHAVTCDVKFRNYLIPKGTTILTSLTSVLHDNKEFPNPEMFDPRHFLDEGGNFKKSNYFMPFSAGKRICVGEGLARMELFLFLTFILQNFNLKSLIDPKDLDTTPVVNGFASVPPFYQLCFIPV
# [11] = target: Cytochrome P450 3A4 (Homo sapiens, UniProt P08684); assay: Inhibition of CYP3A4 (unknown origin); assay type: ADME
# Cytochrome P450 3A4, sequence (P08684 whole entry): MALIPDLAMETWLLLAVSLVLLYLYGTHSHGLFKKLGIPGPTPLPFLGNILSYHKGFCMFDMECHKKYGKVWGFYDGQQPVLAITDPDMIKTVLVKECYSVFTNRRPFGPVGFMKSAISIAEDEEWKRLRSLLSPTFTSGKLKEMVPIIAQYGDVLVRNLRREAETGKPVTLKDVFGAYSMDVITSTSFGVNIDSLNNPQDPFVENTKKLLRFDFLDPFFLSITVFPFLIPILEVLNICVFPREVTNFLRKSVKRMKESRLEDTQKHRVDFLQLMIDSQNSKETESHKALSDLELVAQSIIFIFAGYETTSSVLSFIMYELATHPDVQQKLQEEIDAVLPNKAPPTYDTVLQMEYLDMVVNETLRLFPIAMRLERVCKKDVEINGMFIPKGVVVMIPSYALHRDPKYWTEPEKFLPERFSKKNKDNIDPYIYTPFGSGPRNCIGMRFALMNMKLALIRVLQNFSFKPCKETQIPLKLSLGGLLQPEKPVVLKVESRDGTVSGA
# [12] = target: Cytochrome P450 2D6 (Homo sapiens, UniProt P10635); assay: Inhibition of CYP2D6 (unknown origin); assay type: ADME
# Cytochrome P450 2D6, sequence (P10635 whole entry): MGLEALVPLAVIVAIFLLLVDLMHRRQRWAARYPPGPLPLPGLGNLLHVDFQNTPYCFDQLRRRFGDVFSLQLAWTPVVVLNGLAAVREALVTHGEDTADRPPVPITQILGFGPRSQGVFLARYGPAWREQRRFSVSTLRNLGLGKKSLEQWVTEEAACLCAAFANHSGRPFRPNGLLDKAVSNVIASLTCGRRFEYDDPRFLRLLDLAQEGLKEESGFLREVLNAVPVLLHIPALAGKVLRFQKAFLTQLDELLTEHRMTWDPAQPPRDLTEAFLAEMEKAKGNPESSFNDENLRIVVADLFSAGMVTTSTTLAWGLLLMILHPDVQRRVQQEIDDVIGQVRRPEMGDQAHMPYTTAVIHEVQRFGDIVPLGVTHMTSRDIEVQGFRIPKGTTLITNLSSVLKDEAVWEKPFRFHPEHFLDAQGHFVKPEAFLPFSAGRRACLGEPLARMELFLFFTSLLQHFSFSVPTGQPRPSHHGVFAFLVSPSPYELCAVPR
# [13] = target: CYP2C9 (Homo sapiens, UniProt P11712); assay: Induction of CYP2C9 in human hepatocytes; assay type: ADME, cell-based, Hepatocyte
# CYP2C9, sequence (P11712 whole entry): as the sequence (P11712 whole entry) above
# [14] = Half life in mouse liver microsomes at 10 uM measured after 120 mins; assay type: ADME, Microsome
# [15] = Half life in human liver microsomes at 10 uM measured after 120 mins; assay type: ADME, Microsome
# [16] = Aqueous solubility of compound at pH 1; assay type: physicochemical
# [17] = Lipophilicity, log D of compound at pH 6.5 by shake-flask method; assay type: physicochemical; conditions: buffer
Compound,fraction unbound at 24 h [1],fraction unbound at 24 h [2],fraction unbound at 24 h [3],IC50 [4] [µM],IC50 [5] [µM],IC50 [6] [µM],IC50 [7] [µM],IC50 [8] [µM],IC50 [9] [µM],IC50 [10] [µM],IC50 [11] [µM],IC50 [12] [µM],IC50 [13] [µM],half-life at 10 µM [14] [h],half-life at 10 µM [15] [h],solubility [16] [µg/mL],logD [17]
Cc1nc(-c2nnn(C)c2COC(=O)N(C)CC2CCC2)ccc1O[C@H]1CCC[C@H](C(=O)O)C1,0.033,0.053,0.1,> 40,19.6,> 40,> 40,2.6,> 40,> 40,> 40,> 40,> 50,> 2,> 2,389,2.3
CCCN(C)C(=O)OCc1c(-c2ccc(O[C@H]3CCC[C@H](C(=O)O)C3)c(C)n2)nnn1C [ADMILPARANT],0.056,0.126,0.314,> 40,> 100,> 40,> 40,10,> 40,> 40,> 40,> 40,> 50,> 2,> 2,2990,1.95
Cc1noc(-c2ccc(-c3ccc(C4(C(=O)O)CC4)cc3)cc2)c1NC(=O)O[C@H](C)c1ccccc1 [BMS-986020],0.002,0.002,0.006,> 50,4.8,> 50,5.5,0.57,3.5,> 50,> 50,> 50,> 50,1.52,1.38,< 1,3.6
